Tests used:
Assay in all cases: Z'-LYTE kinase panel
Assay type in all cases: biochemical
[1] = target: T1, PRKX (Homo sapiens, UniProt P51817)
T1 construct: purchased ThermoFisher (SelectScreen, Z'-LYTE)
T1 sequence (P51817 1-358): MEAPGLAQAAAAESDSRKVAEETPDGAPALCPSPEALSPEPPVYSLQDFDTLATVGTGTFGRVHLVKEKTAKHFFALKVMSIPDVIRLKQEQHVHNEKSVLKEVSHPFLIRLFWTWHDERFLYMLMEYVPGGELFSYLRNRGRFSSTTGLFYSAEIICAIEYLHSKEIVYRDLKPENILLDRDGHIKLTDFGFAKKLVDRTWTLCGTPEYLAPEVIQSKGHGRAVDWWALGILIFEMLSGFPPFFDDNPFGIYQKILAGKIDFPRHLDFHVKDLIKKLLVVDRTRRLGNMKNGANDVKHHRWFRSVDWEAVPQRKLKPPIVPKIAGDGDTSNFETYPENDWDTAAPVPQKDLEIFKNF
Outline: (§1)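 Standard Z′-LYTE protocol applied. Compound fixed at 10 µM. Output: % inhibition. Panel size 225 kinases.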

[2] = target: T2, STK22D (TSSK1) (Homo sapiens, UniProt Q9BXA7)
T2 construct: purchased ThermoFisher (SelectScreen, Z'-LYTE)
T2 sequence (Q9BXA7 1-367): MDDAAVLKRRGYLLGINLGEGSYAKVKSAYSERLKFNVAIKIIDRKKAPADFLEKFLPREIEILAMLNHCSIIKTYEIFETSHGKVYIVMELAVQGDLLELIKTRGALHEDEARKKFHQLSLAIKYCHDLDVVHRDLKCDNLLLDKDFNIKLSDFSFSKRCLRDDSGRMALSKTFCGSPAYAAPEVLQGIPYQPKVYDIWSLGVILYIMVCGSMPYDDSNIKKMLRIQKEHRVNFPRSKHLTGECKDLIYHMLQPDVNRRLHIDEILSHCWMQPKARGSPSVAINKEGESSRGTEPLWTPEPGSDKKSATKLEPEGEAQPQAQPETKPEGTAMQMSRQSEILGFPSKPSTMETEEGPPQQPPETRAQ
Outline: as §1

[3] = target: T3, MAP2K6 (MKK6) (Homo sapiens, UniProt P52564); conditions: 10 µM compound; ATP 100
T3 construct: purchased ThermoFisher (SelectScreen, Z'-LYTE)
T3 sequence (P52564 1-334): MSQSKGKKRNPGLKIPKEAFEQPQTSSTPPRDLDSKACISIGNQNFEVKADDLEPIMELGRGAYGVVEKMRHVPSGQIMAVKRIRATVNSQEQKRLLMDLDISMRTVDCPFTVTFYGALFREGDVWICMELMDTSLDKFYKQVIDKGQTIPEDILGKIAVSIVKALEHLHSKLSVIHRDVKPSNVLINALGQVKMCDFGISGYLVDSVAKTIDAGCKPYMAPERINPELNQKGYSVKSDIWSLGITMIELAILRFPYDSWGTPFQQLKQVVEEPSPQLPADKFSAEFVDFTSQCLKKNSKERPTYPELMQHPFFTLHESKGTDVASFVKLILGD
Outline: as §1

[4] = target: T4, GRK4 (Homo sapiens, UniProt P32298)
T4 construct: purchased ThermoFisher (SelectScreen, Z'-LYTE)
Outline: as §1

[5] = target: T5, YES1 (Homo sapiens, UniProt P07947)
T5 construct: purchased ThermoFisher (SelectScreen, Z'-LYTE)
Outline: as §1

[6] = target: T6, PRKG1 (Homo sapiens, UniProt Q13976)
T6 construct: purchased ThermoFisher (SelectScreen, Z'-LYTE)
T6 sequence (Q13976 1-671): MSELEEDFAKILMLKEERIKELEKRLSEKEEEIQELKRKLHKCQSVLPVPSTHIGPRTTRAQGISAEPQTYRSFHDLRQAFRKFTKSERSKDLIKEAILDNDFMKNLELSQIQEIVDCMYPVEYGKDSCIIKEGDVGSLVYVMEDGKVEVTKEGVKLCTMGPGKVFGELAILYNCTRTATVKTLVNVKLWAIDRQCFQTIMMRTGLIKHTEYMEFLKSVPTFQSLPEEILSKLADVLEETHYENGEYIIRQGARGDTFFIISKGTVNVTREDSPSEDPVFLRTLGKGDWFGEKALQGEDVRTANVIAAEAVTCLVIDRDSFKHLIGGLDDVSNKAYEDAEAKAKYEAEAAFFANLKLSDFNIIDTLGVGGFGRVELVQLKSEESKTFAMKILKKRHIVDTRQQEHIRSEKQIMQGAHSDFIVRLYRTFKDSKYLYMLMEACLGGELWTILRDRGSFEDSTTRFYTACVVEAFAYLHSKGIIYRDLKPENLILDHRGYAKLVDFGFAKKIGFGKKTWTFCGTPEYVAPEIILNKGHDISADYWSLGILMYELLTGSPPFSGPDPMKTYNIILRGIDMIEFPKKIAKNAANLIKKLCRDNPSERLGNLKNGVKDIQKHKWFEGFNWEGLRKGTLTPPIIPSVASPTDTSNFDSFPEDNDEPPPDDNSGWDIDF
Outline: as §1

[7] = target: T7, HIPK4 (Homo sapiens, UniProt Q8NE63)
T7 construct: purchased ThermoFisher (SelectScreen, Z'-LYTE)
T7 sequence (Q8NE63 1-616): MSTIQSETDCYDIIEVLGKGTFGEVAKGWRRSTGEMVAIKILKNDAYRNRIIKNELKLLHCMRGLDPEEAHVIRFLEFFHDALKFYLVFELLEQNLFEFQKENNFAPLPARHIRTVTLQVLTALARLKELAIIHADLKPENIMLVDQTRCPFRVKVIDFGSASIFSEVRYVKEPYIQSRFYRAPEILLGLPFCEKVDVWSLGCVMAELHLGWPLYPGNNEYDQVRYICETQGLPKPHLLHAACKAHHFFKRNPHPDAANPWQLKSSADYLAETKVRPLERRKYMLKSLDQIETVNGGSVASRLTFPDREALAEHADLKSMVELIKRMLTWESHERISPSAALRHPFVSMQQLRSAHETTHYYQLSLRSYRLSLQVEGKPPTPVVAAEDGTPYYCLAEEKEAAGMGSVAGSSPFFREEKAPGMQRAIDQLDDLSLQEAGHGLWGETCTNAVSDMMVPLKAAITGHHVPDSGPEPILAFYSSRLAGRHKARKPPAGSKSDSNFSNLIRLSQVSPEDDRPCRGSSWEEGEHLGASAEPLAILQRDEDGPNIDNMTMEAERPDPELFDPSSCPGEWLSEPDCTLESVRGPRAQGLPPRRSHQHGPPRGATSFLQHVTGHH
Outline: as §1

[8] = target: T8, JAK1 (Homo sapiens, UniProt P23458)
T8 construct: purchased ThermoFisher (SelectScreen, Z'-LYTE)
Outline: as §1

[9] = target: T9, AKT1 (PKB alpha) (Homo sapiens, UniProt P31749)
T9 construct: purchased ThermoFisher (SelectScreen, Z'-LYTE)
Outline: as §1

[10] = target: T10, CAMK2D (CaMKII delta) (Homo sapiens, UniProt Q13557)
T10 construct: purchased ThermoFisher (SelectScreen, Z'-LYTE)
Outline: as §1

T9 sequence (P31749 whole entry): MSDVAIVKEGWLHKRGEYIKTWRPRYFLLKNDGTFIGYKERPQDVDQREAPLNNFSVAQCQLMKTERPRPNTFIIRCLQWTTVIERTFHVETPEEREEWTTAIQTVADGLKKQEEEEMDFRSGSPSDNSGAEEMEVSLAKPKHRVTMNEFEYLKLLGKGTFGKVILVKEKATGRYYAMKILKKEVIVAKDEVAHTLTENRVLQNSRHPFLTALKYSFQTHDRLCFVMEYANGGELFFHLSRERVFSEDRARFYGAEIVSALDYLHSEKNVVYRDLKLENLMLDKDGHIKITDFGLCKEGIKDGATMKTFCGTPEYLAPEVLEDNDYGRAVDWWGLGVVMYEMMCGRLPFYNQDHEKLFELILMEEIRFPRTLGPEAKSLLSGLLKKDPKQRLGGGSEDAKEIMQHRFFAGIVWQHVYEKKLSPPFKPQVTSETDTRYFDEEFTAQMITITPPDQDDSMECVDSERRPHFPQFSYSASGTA
T8 sequence (P23458 whole entry): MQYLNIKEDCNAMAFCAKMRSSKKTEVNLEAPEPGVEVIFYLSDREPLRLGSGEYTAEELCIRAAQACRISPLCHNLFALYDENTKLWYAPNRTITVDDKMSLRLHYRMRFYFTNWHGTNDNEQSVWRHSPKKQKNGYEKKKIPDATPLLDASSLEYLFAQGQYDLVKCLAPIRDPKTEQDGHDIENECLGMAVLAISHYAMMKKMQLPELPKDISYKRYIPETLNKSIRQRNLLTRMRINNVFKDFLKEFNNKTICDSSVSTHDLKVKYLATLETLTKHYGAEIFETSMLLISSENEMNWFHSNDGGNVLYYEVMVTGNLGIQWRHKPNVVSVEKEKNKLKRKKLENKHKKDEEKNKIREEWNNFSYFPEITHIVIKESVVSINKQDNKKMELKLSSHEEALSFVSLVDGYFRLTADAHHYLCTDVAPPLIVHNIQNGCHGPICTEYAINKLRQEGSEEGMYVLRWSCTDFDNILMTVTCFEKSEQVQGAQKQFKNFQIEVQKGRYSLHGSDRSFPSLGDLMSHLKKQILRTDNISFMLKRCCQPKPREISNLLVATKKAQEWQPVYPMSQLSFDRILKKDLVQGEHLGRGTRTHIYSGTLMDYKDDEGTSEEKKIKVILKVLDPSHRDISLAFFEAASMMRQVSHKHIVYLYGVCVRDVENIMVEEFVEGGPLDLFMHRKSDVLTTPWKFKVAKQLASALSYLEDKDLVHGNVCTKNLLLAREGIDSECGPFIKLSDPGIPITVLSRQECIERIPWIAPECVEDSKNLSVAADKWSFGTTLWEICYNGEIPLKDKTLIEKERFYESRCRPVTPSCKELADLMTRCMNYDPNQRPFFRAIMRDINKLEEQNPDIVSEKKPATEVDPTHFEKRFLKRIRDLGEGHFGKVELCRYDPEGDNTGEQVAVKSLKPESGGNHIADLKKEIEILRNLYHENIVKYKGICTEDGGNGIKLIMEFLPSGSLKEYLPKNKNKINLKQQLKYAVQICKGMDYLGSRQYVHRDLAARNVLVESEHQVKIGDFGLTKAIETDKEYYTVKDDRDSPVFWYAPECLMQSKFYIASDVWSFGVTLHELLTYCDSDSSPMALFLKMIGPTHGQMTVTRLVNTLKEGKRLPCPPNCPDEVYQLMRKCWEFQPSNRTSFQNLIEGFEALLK
T5 sequence (P07947 whole entry): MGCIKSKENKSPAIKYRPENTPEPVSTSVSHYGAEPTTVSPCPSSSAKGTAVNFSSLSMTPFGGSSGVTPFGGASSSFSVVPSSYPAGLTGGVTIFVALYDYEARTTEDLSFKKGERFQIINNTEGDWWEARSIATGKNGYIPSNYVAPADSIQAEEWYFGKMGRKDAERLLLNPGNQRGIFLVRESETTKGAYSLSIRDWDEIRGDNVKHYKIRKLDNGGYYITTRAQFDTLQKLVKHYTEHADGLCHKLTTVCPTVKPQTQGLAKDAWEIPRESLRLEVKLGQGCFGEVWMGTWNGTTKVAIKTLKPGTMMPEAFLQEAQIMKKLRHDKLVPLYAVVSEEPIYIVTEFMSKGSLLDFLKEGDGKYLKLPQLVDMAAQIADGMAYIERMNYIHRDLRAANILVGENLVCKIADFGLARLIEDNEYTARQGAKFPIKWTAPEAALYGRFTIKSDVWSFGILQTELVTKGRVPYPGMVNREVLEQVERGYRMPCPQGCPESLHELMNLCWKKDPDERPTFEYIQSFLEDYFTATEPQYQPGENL
T4 sequence (P32298 whole entry): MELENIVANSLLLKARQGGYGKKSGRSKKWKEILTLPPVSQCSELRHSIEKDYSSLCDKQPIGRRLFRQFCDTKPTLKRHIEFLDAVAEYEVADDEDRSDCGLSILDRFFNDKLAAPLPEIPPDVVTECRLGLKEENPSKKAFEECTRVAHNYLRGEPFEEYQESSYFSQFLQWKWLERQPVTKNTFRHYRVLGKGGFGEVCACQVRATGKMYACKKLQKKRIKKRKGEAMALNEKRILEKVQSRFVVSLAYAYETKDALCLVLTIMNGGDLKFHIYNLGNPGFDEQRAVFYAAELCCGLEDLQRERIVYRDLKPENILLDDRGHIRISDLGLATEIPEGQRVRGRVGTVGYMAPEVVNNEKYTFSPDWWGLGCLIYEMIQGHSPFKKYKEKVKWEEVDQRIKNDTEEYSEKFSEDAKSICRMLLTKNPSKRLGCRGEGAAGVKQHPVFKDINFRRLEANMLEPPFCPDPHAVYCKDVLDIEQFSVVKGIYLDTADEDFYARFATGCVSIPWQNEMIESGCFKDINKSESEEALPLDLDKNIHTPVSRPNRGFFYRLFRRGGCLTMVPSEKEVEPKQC

| Compound | inhibition at 10 µM [1] | inhibition at 10 µM [2] | inhibition at 10 µM [3] | inhibition at 10 µM [4] | inhibition at 10 µM [5] | inhibition at 10 µM [6] | inhibition at 10 µM [7] | inhibition at 10 µM [8] | inhibition at 10 µM [9] | inhibition at 10 µM [10] | PRKX % Inhibition ([1]; 10 µM compound, ATP Km app) | STK22D (TSSK1) % Inhibition ([2]; 10 µM compound, ATP Km app) | MAP2K6 (MKK6) % Inhibition [3] | GRK4 % Inhibition ([4]; 10 µM compound, ATP Km app) | YES1 % Inhibition ([5]; 10 µM compound, ATP Km app) | PRKG1 % Inhibition ([6]; 10 µM compound, ATP Km app) | HIPK4 % Inhibition ([7]; 10 µM compound, ATP Km app) | JAK1 % Inhibition ([8]; 10 µM compound, ATP Km app) | AKT1 (PKB alpha) % Inhibition ([9]; 10 µM compound, ATP Km app) | CAMK2D (CaMKII delta) % Inhibition ([10]; 10 µM compound, ATP Km app) |
| --- | --- | --- | --- | --- | --- | --- | --- | --- | --- | --- | --- | --- | --- | --- | --- | --- | --- | --- | --- | --- |
| Cc1cc(Nc2nc(N)nn2C(=O)NC(C)C)ccc1Cl [Compound 5] | 8.43% | 21% | -1.06% | 7% | 46% | -4% | 19% | 60% | 0.31% | -2.38% |  |  |  |  |  |  |  |  |  |  |
| Cc1ncc(-c2nc(Nc3ccc(C(=O)NCCN4CCCCC4)cc3)ncc2F)n1C(C)C [Compound 3] | 84% | 81% | 88% | 41% | 85% | 80% | 92% | 101% | 19% | 88% |  |  |  |  |  |  |  |  |  |  |
| XMD8-92 [Compound 2, reference compound] |  |  |  |  |  |  |  |  |  |  | 25% | 11% | 8% | 93% | 41% | 10% | 10% | 32% | 41% | 63% |

Source: publication PMC4854315, “Discovery of a novel allosteric inhibitor-binding site in ERK5: comparison with the canonical kinase hinge ATP-binding site” (Acta Crystallographica. Section D, Structural Biology, 2016)
